The source of these data is paper PMC4869678, “Synthesis and Evaluation of a 2,11‐Cembranoid‐Inspired Library” (Chemistry (Weinheim an Der Bergstrasse, Germany), 2016).

One may read the solubility as the dissolved amount per volume that the medium holds. The GI50 is the concentration that inhibits growth by half. A higher GI50 goes with less potent growth inhibition. For orientation: IC50 means the concentration needed to halve the response being measured.

In brackets after ≈: the same amount, converted by molar mass.

Data set [1] can be described thus: Aqueous solubility by nephelometry. The settings on record: aqueous medium (not further specified), kinetic from dmso stock, measured by nephelometry. Type of data set: physicochemical. From the text:
(§1) Due to a lack of UV chromophore and/or poor mass spectrometry ionisation, nephelometry46 was used to measure the solubility. PAMPA (parallel artificial membrane permeability assay)47 was used to assess the permeability.

The nature of data set [2]: PAMPA (parallel artificial membrane permeability assay). It counts as in vitro ADME.
Source text: as §1
In general terms: In PAMPA a lipid-coated filter parts donor from acceptor wells.

Data set [3] in a line: Permeability across a Caco-2 monolayer. The conditions noted are these: human, read-out: permeability across a monolayer of Caco‐2 cells. Type of data set: in vitro ADME, human.
For data set [4], the system named is Caco‐2 human intestinal cancer cells. Nature of the data set: Permeability across a Caco-2 monolayer. Type of data set: in vitro ADME. For orientation: Caco-2 monolayers are a common model of the intestinal barrier.
Data set [5] relates to PC3 human prostate cancer cell line. Nature of the data set: NCI panel growth inhibition, PC3 line. It counts as cell-based. The settings on record: PC3, single concentration of 10 µM, 48 h, NCI screen, read-out: inhibition of proliferation. How it is done: A selection of fifteen of the cembranoid‐inspired compounds was screened against a panel of 60 cancer cell lines at the National Cancer Institute screening panel (see the Supporting Information).49 This cell‐based assay aims to discover compounds with a strong cytostatic or cytotoxic growth inhibition over 48 h. Unfortunately, only low levels (up to 20 %) of cell growth inhibition were seen when screened at a single concentration of 10 µM.

Data set [6] relates to PC3 cells. Nature of the data set: SRB antiproliferative concentration-response assay. It counts as cell-based. The settings on record: Homo sapiens, PC-3, in vitro 96 h assay, full dose response curve. How it is done: (§2) Figure 6 a) Concentration–response curve for the antiproliferative effect of compound 28 on PC3 cells in vitro 96 h assay. b) Compound 28 inhibiting the migration properties of PC3 TEM cancer cells. FCS=fetal calf serum.
Cells were seeded in 100μl medium into 96-well plates. After 36 hours, serial doubling dilutions of drug (or vehicle) were added to give the required dose range in sextuplicate across the plate. Cells were incubated for a further 96 hours. The medium was then removed and cells were fixed by adding 50μl of 10% (w/v) trichloroacetic acid (TCA) for one hour at room temperature. The plates were gently washed by immersion in tap water three times then air dried. 50μl of 0.4% (w/v) SRB in 1% (v/v) acetic acid was added to each well for one hour. […] Absorbance at 570nm was measured using a SPECTRAmax 340PC plate reader.
(§3) Cells in standard tissue culture flasks were fluorescently labelled by incubation with 1umol/L CellTracker Green 5-chloromethylfluorescein diacetate (Invitrogen, Paisley) concomitant with serum starvation for two hours. Following trypsinisation cells were counted and added to the upper wells of 8um pore FluoroblokTM membrane inserts in 24-well companion plates (BD Biosciences, Franklin Lakes, NJ). […] Cells which successfully migrated to the lower surface of the filter were visualised using an inverted fluorescence

For data set [7], the system named is PC3 TEM cancer cells. The experiment in a line: Migration assay (Fluoroblok membrane, FCS chemotaxis). It counts as cell-based, human. The conditions noted are these: 3‐ and 5‐fold GI50 concentrations, FCS-stimulated migration. How it is done:
as §2
Whereas cembranoid natural products may not be inherently cytotoxic, an appreciable number do display an ability to inhibit the migratory and invasive properties of cancer cells.50 The effect of compound 28 on a PC3‐based migratory assay was therefore determined.
Cells were seeded in 100μl medium into 96-well plates. After 36 hours, serial doubling dilutions of drug (or vehicle) were added to give the required dose range in sextuplicate across the plate. Cells were incubated for a further 96 hours. […] Absorbance at 570nm was measured using a SPECTRAmax 340PC plate reader.
as §3

Data set [8] has as its system L1210 mouse lymphocytic leukemia cells. Further details: method as in earlier work. The settings on record: in vitro; cited from earlier work.
Data set [9] relates to PC3 cells. The settings on record: 50 µM; cited from earlier work.
In data set [10] the test system is cancer cells. On the set-up: method as in PMID 20420415. The conditions noted are these: 50 µM; cited from earlier work.

In the case of `C=CCC1OC(COC(=O)C=CC)C2CC=CCC12` (stereo not drawn) [Compound 15], the solubility in data set [1] was 500 µM (≈ 131 µg/mL). The same compound yielded a permeability (Pe) in [2] of 25 ×10⁻⁶ cm/s.

In data set [1], `O=C1CCC/C=C/C[C@@H]2O[C@H](CO1)[C@H]1CCCC[C@H]12` [Compound 28] came in with a solubility of 550 µM (≈ 145 µg/mL). Moreover, in data set [2], the permeability (Pe) is 52 ×10⁻⁶ cm/s. Moreover, in data set [3], the Papp came to 16 ×10⁻⁶ cm/s. The transporter efflux result in data set [4] is given as “no evidence of transporter efflux”. In addition, in [5], the inhibition at 10 µM came out at 17%. Further, growth in [6] was halved (GI50) at 63 µM. Besides, in data set [7], the “effect on cell migration” value is on record as “reduction to near basal levels of migration”.

On to `CC1(C)CCC(=O)OCC2OC1C1CCCCC21` (stereo not drawn) [Compound 65], for which, in [1], the solubility was found to be 550 µM (≈ 139 µg/mL). The permeability (Pe) in [2] is over 150 ×10⁻⁶ cm/s.

Compound `OC1CCC=CCC2OC1C1CCCCC21` (stereo not drawn) [Compound 76] had a solubility in [1] of 500 µM (≈ 111 µg/mL).

As to `C=C1CC[C@H](C(C)C)[C@@H]2[C@H]1[C@H]1C[C@](C)(O)[C@@H](O)CC[C@@](C)(O)[C@@H]2O1` [sclerophytin A], the IC50 in data set [8] was 0.003 µM. For the same compound, in [9], the effect on proliferation entry is recorded as “no effect on proliferation”. The inhibition of migration in data set [10] was 85%.
